In EP0013144A1, “Substituted diphenylamine derivatives, compositions and herbicidal uses thereof, and processes for their preparation” (ICI AUSTRALIA LIMITED, priority 1978, dated 1980):

How the values were obtained:
Type in all cases: in vivo
Rice [1] = assay: Pre-emergence herbicidal test, fibre trays (Example 33); conditions: 2.0 kg/ha, after 21 days
Protocol: (§1) The compounds were formulated for test by mixing an appropriate amount with 5 ml of an emulsion prepared by diluting 160 ml of a solution containing 21.S g per litre of "Span" 80 and 78.2 g per litre of "Tween" 20 in methylcyclohexanone to 500 ml with water. "Span" 80 is a Trade Mark for a surface-active agent comprising sorbitan monolaurate. "Tween" 20 is a Trade Mark for a surface-active agent comprising a condensate of sorbitan monolaurate with 20 molar proportions of ethylene oxide. Each 5 ml emulsion containing a test compound was'then diluted to 40 ml with water and sprayed on to young pot plants (post-emergence test) of the species named in Table 5 below. Damage to test plants was assessed after 14 days on a scale of 0 to 5 where 0 is 0 to 20% damage and 5 is complete kill. In a test for pre-emergence herbicidal activity, seeds of the test plants were sown in a shallow slit formed in the surface of soil in fibre trays. The surface was then levelled and sprayed, and fresh soil then spread thinly over the sprayed surface. Assessment of herbicidal damage was carried out after 21 days using the same scale of 0 to 5 as the post-emergence test. In both cases the degree of herbicidal damage was assessed by comparison with untreated control plants. A dash (-) means that no experiment was carried out.

Japanese millet = assay: Post-emergence herbicidal activity (Example 32); conditions: 5 kg/ha, 3 weeks after spraying
Protocol: (§2) Concentrated formulations of the compounds of the invention were prepared by: • a) in the case of oils and waxy solids, dissolving the compound in toluene containing 7% v/v "Teric" N13 ("Teric" is a Trade MarK and "Teric" N13, a product of ethoxylation of nonylphenol, is available from ICI Australia Limited) and 3% v/v "Kemmat" SC15B ("Kemmat" is a Trade Mark and "Kemmat" SC15B is a formulation of calcium dodecylbenzene sulfonate); or • b) in the case of crystalline solids, adding 5 parts by weight of the compound and 1 part by weight of . ''Dyapol" PT ("Dyapol" is a Trade Mark and "Dyapol" PT is an anionic suspending agent) to 94 parts by weight of an aqueous solution containing 0.25% v/v of "Teric" N8 (a product of ethoxylation of nonylphenol) and ball-milling the mixture to produce a stable suspension. The emulsifiable concentrates and suspensions were then diluted with water to give an aqueous composition of the required concentration suitable for use in the evaluation of the pre-emergence and post-emergence herbicidal activity of the compounds of the invention.
(§3) The post-emergent herbicidal activity of the compounds of the invention formulated as described in Example 30 was assessed by the following procedure.
(§4) The seeds of the test species were sown in rows 2 cm deep in soil contained in seed boxes. The monocotyledonous plants and the dicotyledonous plants were sown in separate seed boxes in duplicate. The four seed boxes were placed in a glasshouse, lightly watered with an overhead spray to initiate germination and then sub-irrigated as required for optimum plant growth. After the plants had grown to a height of about 10 to 12.5 cm one box of each of the monocotyledonous plants and the dicotyledonous plants was removed from the glasshouse and sprayed with the required quantity of a composition of the invention. After spraying the boxes were returned to the glasshouse for further 3 weeks and the effects of the treatment was visually assessed by comparison with the untreated controls. The results are presented in Table 4 where the damage to plants is rated on a scale of from 0 to 3 where 0 represents 0 to 25% damage, 3 represents 75 to 99% kill and 3+ represents 100% kill. A dash (-) means that no experiment was carried out.

Wild Oats = assay: Post-emergence herbicidal activity (Example 32); conditions: 5 kg/ha, 3 weeks after spraying
Protocol: as §2, §3, §4

Sunflower = assay: Post-emergence herbicidal activity (Example 32); conditions: 5 kg/ha, 3 weeks after spraying
Protocol: as §2, §3, §4

Mustard = assay: Post-emergence herbicidal activity (Example 32); conditions: 5 kg/ha, 3 weeks after spraying
Protocol: as §2, §3, §4

Ipomea = assay: Post-emergence herbicidal activity (Example 32); conditions: 5 kg/ha, 3 weeks after spraying
Protocol: as §2, §3, §4

Ryegrass = assay: Post-emergence herbicidal activity (Example 32); conditions: 5 kg/ha, 3 weeks after spraying
Protocol: as §2, §3, §4

Senecio vulgaris [2] = assay: Post-emergence herbicidal test, young pot plants (Example 33); conditions: 2.0 kg/ha, after 14 days
Protocol: as §1

Sugar beet [3] = assay: as above; conditions: 2.0 kg/ha, after 14 days
Protocol: as §1

Soy bean [4] = assay: as above; conditions: 2.0 kg/ha, after 14 days
Protocol: as §1

Cotton [5] = assay: as above; conditions: 2.0 kg/ha, after 14 days
Protocol: as §1

Ipomea purpurea [6] = assay: as above; conditions: 2.0 kg/ha, after 14 days
Protocol: as §1

Rape [7] = assay: as above; conditions: 2.0 kg/ha, after 14 days
Protocol: as §1

Winter wheat [8] = assay: Pre-emergence herbicidal test, fibre trays (Example 33); conditions: 2.0 kg/ha, after 21 days
Protocol: as §1

Senecio vulgaris [9] = assay: as above; conditions: 2.0 kg/ha, after 21 days
Protocol: as §1

Sugar beet [10] = assay: as above; conditions: 2.0 kg/ha, after 21 days
Protocol: as §1

Soy bean [11] = assay: as above; conditions: 2.0 kg/ha, after 21 days
Protocol: as §1

Cotton [12] = assay: as above; conditions: 2.0 kg/ha, after 21 days
Protocol: as §1

Amaranthus retroflexus = assay: as above; conditions: 2.0 kg/ha, after 21 days
Protocol: as §1

Ipomea purpurea [13] = assay: as above; conditions: 2.0 kg/ha, after 21 days
Protocol: as §1

Rape [14] = assay: as above; conditions: 2.0 kg/ha, after 21 days
Protocol: as §1

Maize [15] = assay: as above; design: key: 0 = 0-20% damage, 5 = complete kill, vs untreated control; conditions: 2.0 kg/ha, after 21 days
Protocol: as §1

Maize [16] = assay: Post-emergence herbicidal test, young pot plants (Example 33); conditions: 2.0 kg/ha, after 14 days
Protocol: as §1

Rice [17] = assay: as above; conditions: 2.0 kg/ha, after 14 days
Protocol: as §1

Wheat = assay: Post-emergence herbicidal activity (Example 32); design: key: 0-3 scale: 0 = 0-25% damage, 3 = 75-99% kill, 3+ = 100% kill; conditions: 5 kg/ha, 3 weeks after spraying
Protocol: as §2, §3, §4

Winter wheat [18] = assay: Post-emergence herbicidal test, young pot plants (Example 33); design: key: 0 = 0-20% damage, 5 = complete kill, vs untreated control; conditions: 2.0 kg/ha, after 14 days
Protocol: as §1

COC(=O)C(C)Oc1ccc(N(C)c2ccc([N+](=O)[O-])cc2[N+](=O)[O-])cc1 (centres unmarked) [Compound 18]
0 (0 represents 0 to 25% damage): damage to plants, Sf (Sunflower) | damage to plants, Ms (Mustard) | damage to plants, Ip (Ipomea)
2: damage to test plants, Mz (Maize [16]) | damage to plants, Wh (Wheat)
0 (0 is 0 to 20% damage): damage to test plants, Sn (Senecio vulgaris [2]) | damage to test plants, Sy (Soy bean [4]) | damage to test plants, Ct (Cotton [5]) | damage to test plants, Ip (Ipomea purpurea [6]) | damage to test plants, Rp (Rape [7]) | herbicidal damage, Ww (Winter wheat [8]) | herbicidal damage, Sn (Senecio vulgaris [9]) | herbicidal damage, Sb (Sugar beet [10]) | herbicidal damage, Sy (Soy bean [11]) | herbicidal damage, Ct (Cotton [12]) | herbicidal damage, Am (Amaranthus retroflexus) | herbicidal damage, Ip (Ipomea purpurea [13]) | damage to test plants, Rc (Rice [17]) | damage to test plants, Ww (Winter wheat [18])
3+ (3+ represents 100% kill): damage to plants, Jm (Japanese millet) | damage to plants, Rg (Ryegrass)
1: herbicidal damage, Rc (Rice [1]) | damage to test plants, Sb (Sugar beet [3]) | herbicidal damage, Rp (Rape [14]) | herbicidal damage, Mz (Maize [15])
3 (3 represents 75 to 99% kill): damage to plants, Ot (Wild Oats)
